Assays:
[1] = tested on: ESBL-producing strain of Escherichia coli, having an associated resistance to the aminoglycosides (EcR3); test: MIC of the compounds used alone, microdilution in a liquid medium (CLSI); type: cell-based; conditions: antibiotic alone (second value of cell)
Description: (§1) The MICs of the antibiotics were previously defined for each strain, by the method of microdilution in a liquid medium (CLSI (Clinical and Laboratory Standards Institute), 2003).

[2] = tested on: Escherichia coli strain ATCC 25922 (wild type); test: as above; type: cell-based; conditions: antibiotic alone (second value of cell); E. coli ATCC 25922
Description: as §1

[3] = tested on: Staphylococcus aureus strain ATCC 29213 (wild type); test: as above; type: cell-based; conditions: antibiotic alone (second value of cell); S. aureus ATCC 29213
Description: as §1

[4] = tested on: cephalosporinase-hyperproducing strain of Escherichia coli (EcR2); test: as above; type: cell-based; conditions: antibiotic alone (second value of cell)
Description: as §1

[5] = tested on: penicillinase-producing strain of Escherichia coli without associated resistance (EcR1); test: as above; type: cell-based; conditions: antibiotic alone (second value of cell)
Description: as §1

[6] = tested on: MRSA strain having a resistance to the aminoglycosides and fluoroquinolones (SaR3); test: as above; type: cell-based, Staphylococcus aureus; conditions: antibiotic alone (second value of cell); SaR3
Description: as §1

[7] = tested on: MRSA strain having a resistance to the aminoglycosides, fluoroquinolones, macrolides-lincosamides-synergistins and ofloxacin (SaR4); test: as above; type: cell-based, Staphylococcus aureus; conditions: antibiotic alone (second value of cell); SaR4
Description: as §1

[8] = tested on: MRSA strain without associated resistance (SaR1); test: as above; type: cell-based, Staphylococcus aureus; conditions: antibiotic alone (second value of cell); SaR1
Description: as §1

[9] = tested on: EcR1: Penicillinase-Producing Escherichia coli without Associated Resistance; test: Antibiogram, MIC by the VITEK 2 system; type: cell-based
Description: (§2) 5.1 EcR1: Penicillinase-Producing Escherichia coli without Associated Resistance The bacterial and antibiogramidentification is carried out by the VITEK 2 system (bioMérieux) and by the disk diffusion technique.

[10] = tested on: EcR1: Penicillinase-Producing Escherichia coli without Associated Resistance; test: Antibiogram by the disk diffusion technique; type: cell-based; conditions: Table A1
Description: as §2

[11] = tested on: EcR2: Cephalosporinase-Hyperproducing Strain of Escherichia coli; test: Antibiogram by the disk diffusion technique; type: cell-based
Description: The bacterial and antibiogramidentification is carried out by the VITEK 1 system (bioMérieux) and by the disk diffusion technique

[12] = tested on: EcR3: ESBL-Producing Escherichia coli; test: Antibiogram by the disk diffusion technique; type: cell-based
Description: The bacterial and antibiogramidentification is carried out by the VITEK 2 system (bioMerieux) and by the disk diffusion technique

[13] = tested on: PaR3: Pseudomonas aeruginosa; test: Antibiogram, MIC by the VITEK 2 system; type: cell-based
Description: (§3) The bacterial and antibiogramidentification is carried out by the VITEK 2 system (bioMérieux)

[14] = tested on: SaR1: Meticillin-Resistant Staphylococcus aureus without Associated Resistance; test: Antibiogram, MIC by the VITEK 2 system; type: cell-based; conditions: SaR1
Description: as §3

[15] = tested on: PaR5: Pseudomonas aeruginosa; test: Antibiogram by the disk diffusion technique; type: cell-based
Description: (§4) The bacterial and antibiogramidentification is carried out by the VITEK 2 system (bioMérieux) and by the disk diffusion technique

[16] = tested on: SaR3: Meticillin-Resistant Staphylococcus aureus; test: Antibiogram by the disk diffusion technique; type: cell-based
Description: as §4

[17] = tested on: SaR4: Meticillin-Resistant Staphylococcus aureus; test: Antibiogram by the disk diffusion technique; type: cell-based
Description: as §4

[18] = tested on: PaR2: Pseudomonas aeruginosa; type: cell-based
Description: as §4

[19] = tested on: Escherichia coli, Staphylococcus aureus and Pseudomonas aeruginosa strains; test: Chessboard technique, summary statements over all strains and combinations tested; type: cell-based; conditions: strain not stated
Outline: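 Checkerboard of 64 antibiotic/Cx1 concentration combinations per strain. FIC index classed as synergy (≤0.5), additive (>0.5–1), indifferent (>1–4) or antagonism (>4). Each strain and combination tested at least 3 times.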

[20] = tested on: SaR1: Meticillin-Resistant Staphylococcus aureus without Associated Resistance; test: Antibiogram, inhibition diameter (Table D1); type: cell-based
Description: as §3

Gentamicin
Initial MICs (mg/L) [1]: 2/2 mg/L
Initial MICs [2]: 0.125 mg/L
Initial MICs [3]: 0.25 mg/L
Initial MICs (mg/L) [4]: 2/2 mg/L
Initial MICs [5]: 0.125 mg/L
MIC [6]: 0.125 µg/mL
MIC [7]: 0.25 µg/mL
MIC [8]: 0.25 µg/mL
CA-SFM Interpretation ([9]; EcR1, MIC against Cc CA-SFM 2011): Susceptible
CLSI Interpretation ([9]; EcR1, MIC against Cc CLSI 2011): Susceptible
EUCAST Interpretation ([9]; EcR1, MIC against Cc EUCAST 2011): Susceptible
MIC mg/L (diameter in mm) ([9]; EcR1, Table A2): ≦1 mg/L
MIC mg/L ([9]; EcR1, VITEK 2, Table A1): ≦1 mg/L
Results ([9]; EcR1, interpretation of the MIC, Table A1): Susceptible
Diameter ([10]; EcR1, disk diffusion): 20 mm
Results ([10]; EcR1, interpretation of the diameter against Dmin Dmax): Susceptible
Diameter ([11]; EcR2, disk diffusion, Table B1): 12
Results ([11]; EcR2, rows that print a diameter, Table B1): Resistant
Diameter ([11]; EcR2, Table B2, diameters): 12 mm
CA-SFM Interpretation ([11]; EcR2, from diameter, CA-SFM 2011): Resistant
CLSI Interpretation ([11]; EcR2, from diameter, CLSI 2011): Resistant
EUCAST Interpretation ([11]; EcR2, from diameter, EUCAST 2011): Resistant
CA-SFM Interpretation ([12]; Cd CA-SFM 2011): Resistant
CLSI Interpretation ([12]; Cd CLSI 2011): Intermediate
EUCAST Interpretation ([12]; Cd EUCAST 2011): Resistant
Diameter ([12]; Table C1): 12 mm
Results ([12]; Table C1, against Dmin Dmax): Resistant
diameter in mm ([12]; Table C2): 12 mm
CA-SFM Interpretation ([13]; Cc CA-SFM 2011): Resistant
CLSI Interpretation ([13]; Cc CLSI 2011): Resistant
EUCAST Interpretation ([13]; Cc EUCAST 2011): Resistant
MIC ([13]; Table H1): ≧16
Results ([13]; Table H1): Resistant
MIC mg/L ([13]; Table H2): ≧16 mg/L
CA-SFM Interpretation ([14]; Cc CA-SFM 2011): Susceptible
CLSI Interpretation ([14]; Cc CLSI 2011): Susceptible
EUCAST Interpretation ([14]; Cc EUCAST 2011): Susceptible
MIC mg/L ([14]; Table D1): ≦0.5 mg/L
Results ([14]; Table D1, from MIC): Susceptible
MIC mg/L ([14]; Table D2): ≦0.5 mg/L
Diameter ([15]; PaR5, Table I1): 25 mm
Results ([15]; PaR5, Table I1, against Dmin-Dmax): Susceptible
diameter in mm ([15]; disk diffusion inhibition diameter, strain PaR5): 25 mm
CA-SFM Interpretation ([15]; disk diffusion, PaR5, versus critical diameter CA-SFM 2011): Susceptible
CLSI Interpretation ([15]; disk diffusion, PaR5, versus critical diameter CLSI 2011): Susceptible
EUCAST Interpretation ([15]; disk diffusion, PaR5, versus critical diameter EUCAST 2011, for ** antibiotics the disk load differs and the EUCAST interpretation is not applicable): Susceptible
CA-SFM Interpretation ([16]; Cd CA-SFM 2011): Susceptible
CLSI Interpretation ([16]; Cd CLSI 2011): Susceptible
EUCAST Interpretation ([16]; Cd EUCAST 2011): Susceptible
Diameter ([16]; Table E1): 20 mm
Results ([16]; Table E1, against Dmin Dmax): Susceptible
diameter in mm ([16]; Table E2): 20 mm
Diameter ([17]; Table F1): 21
Results ([17]; Table F1, rows with a diameter): Susceptible
Diameter ([17]; Table F2, diameters): 21 mm
CA-SFM Interpretation ([17]; from diameter, CA-SFM 2011): Susceptible
CLSI Interpretation ([17]; from diameter, CLSI 2011): Susceptible
EUCAST Interpretation ([17]; from diameter, EUCAST 2011): Susceptible
CA-SFM Interpretation ([18]; Cd CA-SFM 2011): Susceptible
CLSI Interpretation ([18]; Cd CLSI 2011): Susceptible
EUCAST Interpretation ([18]; Cd EUCAST 2011): Susceptible
Diameter ([18]; Table G1): 21 mm
Results ([18]; Table G1, against Dmin-Dmax): Susceptible
diameter in mm ([18]; Table G2): 21 mm
interaction between the antibiotic and Cx1 [19]: synergism
Diameter [20]: 23 mm
Results ([20]; from diameter, against Dmin Dmax): Susceptible

— patent US20140066365A1, “USE OF CALIXARENES ASSOCIATED WITH AN ANTIBIOTIC IN THE TREATMENT OF BACTERIAL INFECTIONS” (priority 2011, published 2014)
